Results on ten molecules are retold here after patent US6984394B2, “Plastically deformable implant” (Bausch & Lomb Incorporated, priority 1999, dated 2006).

Data set [1] in a line: Interfacial tension with respect to the nonpolar component. It counts as physicochemical. As to conditions: surface-active agent, in aqueous solution. The source says: According to the present invention, the term fluorine-containing gel is defined as a gel-like preparation which comprises a minimum of one fluorocarbon. In especially useful embodiments of the present invention, the fluorine-containing gel comprises essentially three components, i.e., a fluorocarbon, a fluorine-containing surface-active agent, and water. It is possible for different additives to be added to the fluorocarbon-containing and aqueous components. Certain compositions of surface-active agents, fluorocarbons, and water form gels which are able to completely recover their gel structure after they have been liquefied, for example, by exposure to mechanical pressure or heat. This property of the gels according to the present invention makes it possible for them to be used as a generic implant over a long period of time. If the implant material of such an implant that has been inserted into a bodily orifice were to liquefy, for example, as a result of short-term pressure, the gel structure, due to the reversibility described, would be able to recover when in a state of rest. Thus, the implant according to the present invention has a self-regulating restorative mechanism. This self-regulating restorative mechanism of a polyaphron gel is attributable to the stability of the aphrons that form the gel. After liquefaction, a gel can restore its structure only if its “building blocks,” the aphrons, were not completely destroyed. If a sufficient number of intact aphrons remain after liquefaction, a recovery is possible, and what comes as a surprise is the fact that the aphron structure is transferred to the homogenized regions of the surrounding liquid and that the gel structure is restored in the entire liquid. The stability of the aphrons depends on the intensity of the interaction between water, surface-active agent, and perfluorocarbon, which in turn is determined by the surface properties and the ability of the individual phases to spread on each other's surface. […]

Data set [2] is described as follows: Surface tension of surface-active agent. It counts as physicochemical. As to conditions: in aqueous solution. The source says: According to the present invention, the term fluorine-containing gel is defined as a gel-like preparation which comprises a minimum of one fluorocarbon. In especially useful embodiments of the present invention, the fluorine-containing gel comprises essentially three components, i.e., a fluorocarbon, a fluorine-containing surface-active agent, and water. It is possible for different additives to be added to the fluorocarbon-containing and aqueous components. Certain compositions of surface-active agents, fluorocarbons, and water form gels which are able to completely recover their gel structure after they have been liquefied, for example, by exposure to mechanical pressure or heat. This property of the gels according to the present invention makes it possible for them to be used as a generic implant over a long period of time. If the implant material of such an implant that has been inserted into a bodily orifice were to liquefy, for example, as a result of short-term pressure, the gel structure, due to the reversibility described, would be able to recover when in a state of rest. Thus, the implant according to the present invention has a self-regulating restorative mechanism. This self-regulating restorative mechanism of a polyaphron gel is attributable to the stability of the aphrons that form the gel. After liquefaction, a gel can restore its structure only if its “building blocks,” the aphrons, were not completely destroyed. If a sufficient number of intact aphrons remain after liquefaction, a recovery is possible, and what comes as a surprise is the fact that the aphron structure is transferred to the homogenized regions of the surrounding liquid and that the gel structure is restored in the entire liquid. The stability of the aphrons depends on the intensity of the interaction between water, surface-active agent, and perfluorocarbon, which in turn is determined by the surface properties and the ability of the individual phases to spread on each other's surface. In addition, an important aspect is the intensity of the interactions of the molecules within the films that envelop the aphrons (water/surface-active agent; perfluorocarbon/surface-active agent). Thus, the self-regulating restorative mechanism is activated only if the surface properties of the surface-active agent/water and/or surface-active agent/perfluorocarbon film, on the one hand, and of the internal aphron phase, on the other hand, are properly coordinated, i.e., if the strength of the surface-active agent stabilizes the aphron structure. This can be implemented through the use of fluorine-containing surface-active agents of the general formula RF—Rpol, where RF stands for the linear or branched perfluoroalkyl groups with more than 5 carbon atoms and Rpol stands for a polar hydrocarbon residue which comprises a minimum of one functional group which is selected from CO—NH(R), CO—N(R)2, COO—, COOR, SO3; SO2N(R)2, CH2—O—R, PO2H, PO3H. The molecular weight is preferably >400 g/mol, the surface tension in aqueous solution is <30 mN/m and preferably <20 mN/m. The interfacial tension in aqueous solution with respect to the nonpolar component is <25 mN/m, preferably <10 mN/m, and the concentration is <3%, preferably <0.1%. With nonfluorinated surface-active agents, this can be achieved by means of a strong cohesive effect with an HLB value greater than 25 (HLB=hydrophilic lipophilic balance according to Griffin in J. Soc. Cosmet. Chem. 1 (1949), p. 311).

Take “Perfluoroalkyl ethanol oxethylate [Fluowet OTN]”: the “σG = interfacial tension with respect to the nonpolar component” value (shortened to “σG = interfacial tension”) in data set [1] came out at 19 mNm. Also, in data set [2], the “σO = surface tension” value amounted to 18 mNm.
For `O=C(N(CCO)CC(O)C(O)C(O)C(O)CO)C(F)(F)C(F)(F)C(F)(F)C(F)(F)C(F)(F)C(F)(F)C(F)(F)F` [Example T16, Perfluorooctanoic acid N-(2-hydroxyethyl)-D-glucamide], the “σO = surface tension” value in data set [2] is reported as “σO < 20 mNm”.
For `CN(C[C@H](O)[C@@H](O)[C@H](O)[C@H](O)CO)C(=O)C(F)(F)C(F)(F)C(F)(F)C(F)(F)C(F)(F)C(F)(F)C(F)(F)F` [Example T14, Perfluorooctanoic acid N-methyl-D-glucamide], in data set [2], the “σO = surface tension” value is recorded as “σO < 20 mNm”.
As for `O=C(N(CCO)C[C@H](O)[C@@H](O)[C@H](O)[C@H](O)CO)C(F)(F)C(F)(F)C(F)(F)C(F)(F)C(F)(F)C(F)(F)C(F)(F)C(F)(F)C(F)(F)F` [Example T21, Perfluorodecanoic acid N-(2-hydroxyethyl)-D-glucamide], the “σO = surface tension” value in data set [2] was “σO < 20 mNm”.
On the same count and under the same terms, to `C[N+](C)(C)C.O=C([O-])C(F)(F)C(F)(F)C(F)(F)C(F)(F)C(F)(F)C(F)(F)C(F)(F)F` [E 749, Tetramethyl ammonium salt of perfluorooctanoic acid] belongs “σO < 20 mNm”.
In the case of Fluorinated amine oxide [Fluowet OX], the “σG = interfacial tension” value in data set [1] worked out at 12 mNm. The “σO = surface tension” value in data set [2] worked out at 22 mNm.
With `O=C(N(CCO)CCO)C(F)(F)C(F)(F)C(F)(F)C(F)(F)C(F)(F)C(F)(F)C(F)(F)F` [HO31, Perfluorooctanoic acid diethanolamide], the “σO = surface tension” value in data set [2] was “σO < 20 mNm”.
As for “Perfluorooctanoic acid tetraethyl piperazinium salt [HO224]”, the “σO = surface tension” value in data set [2] was “σO = 16 mNm”.
Regarding “Perfluoroalkyl ethanol oxethylate [Fluowet OTL]”, in data set [1], the “σG = interfacial tension” value came out at 10 mNm. Also, in data set [2], the “σO = surface tension” value worked out at 19 mNm.
Regarding `CC[N+](CC)(CC)CC.O=S(=O)([O-])C(F)(F)C(F)(F)C(F)(F)C(F)(F)C(F)(F)C(F)(F)C(F)(F)C(F)(F)F` [Example B248, Tetraethyl animonium salt of perfluorooctanesulfonic acid], the “σO = surface tension” value in data set [2] is on record as “σO < 20 mNm”.
